Measurements as given in ChEMBL document CHEMBL3392983, “Synthesis, antimicrobial activity and molecular docking of novel tetracyclic scaffolds incorporating a flavonoid framework with medium sized oxygen heterocycles” (2015).
Values after ≈ are worked out from the molar mass of the structure shown.

What was measured:
Type in all cases: functional
[1] = test system: Candida tropicalis; assay: Antimicrobial activity against Candida tropicalis ATCC 750 assessed as inhibition of microbial growth incubated for 72 hrs by broth dilution method; details: ATCC 750, 72 h
[2] = test system: Pseudomonas aeruginosa; assay: Bactericidal activity against Pseudomonas aeruginosa ATCC 10145 assessed as microbial killing during 18 hrs post sub-culture onto drug-free solid media by broth dilution method; details: ATCC 10145, 18 h, read-out: MBC99.9
[3] = test system: Escherichia coli; assay: Bactericidal activity against Escherichia coli ATCC 10536 assessed as microbial killing during 18 hrs post sub-culture onto drug-free solid media by broth dilution method; details: ATCC 10536, 18 h, read-out: MBC99.9
[4] = test system: Staphylococcus aureus; assay: Antimicrobial activity against Staphylococcus aureus ATCC 25923 assessed as inhibition of microbial growth incubated for 24 hrs by broth dilution method; details: ATCC 25923, 24 h
[5] = test system: Pseudomonas aeruginosa; assay: Antimicrobial activity against Pseudomonas aeruginosa ATCC 10145 assessed as inhibition of microbial growth incubated for 24 hrs by broth dilution method; details: ATCC 10145, 24 h
[6] = test system: Escherichia coli; assay: Antimicrobial activity against Escherichia coli ATCC 10536 assessed as inhibition of microbial growth incubated for 24 hrs by broth dilution method; details: ATCC 10536, 24 h
[7] = test system: Staphylococcus aureus; assay: Bactericidal activity against Staphylococcus aureus ATCC 25923 assessed as microbial killing during 18 hrs post sub-culture onto drug-free solid media by broth dilution method; details: ATCC 25923, 18 h, read-out: MBC99.9
[8] = test system: Bacillus subtilis; assay: Antimicrobial activity against Bacillus subtilis ATCC 6633 assessed as inhibition of microbial growth incubated for 24 hrs by broth dilution method; details: ATCC 6633, 24 h
[9] = test system: Bacillus subtilis; assay: Bactericidal activity against Bacillus subtilis ATCC 6633 assessed as microbial killing during 18 hrs post sub-culture onto drug-free solid media by broth dilution method; details: ATCC 6633, 18 h, read-out: MBC99.9
[10] = test system: Klebsiella pneumoniae; assay: Antimicrobial activity against Klebsiella pneumoniae ATCC 10031 assessed as inhibition of microbial growth incubated for 24 hrs by broth dilution method; details: ATCC 10031, 24 h
[11] = test system: Candida albicans; assay: Antimicrobial activity against Candida albicans ATCC 10231 assessed as inhibition of microbial growth incubated for 72 hrs by broth dilution method; details: ATCC 10231, 72 h

| Structure (SMILES) | MIC [1] [µM] | MBC [2] [µM] | MBC [3] [µM] | MIC [4] [µM] | MIC [5] [µM] | MIC [6] [µM] | MBC [7] [µM] | MIC [8] [µM] | MBC [9] [µM] | MIC [10] [µM] | MIC [11] [µM] |
| --- | --- | --- | --- | --- | --- | --- | --- | --- | --- | --- | --- |
| O=c1c2c(oc3ccc(Br)cc13)-c1ccccc1OCCO2 | > 0.558 | 0.061 (≈ 0.0219 µg/mL) | 0.061 (≈ 0.0219 µg/mL) | 0.027 | 0.097 | 0.097 | 0.023 (≈ 0.00826 µg/mL) | 0.027 | 0.023 (≈ 0.00826 µg/mL) | 0.083 | > 0.558 |
| O=c1c2c(oc3ccc(F)cc13)-c1ccccc1OCCCCCO2 | > 0.588 | 0.035 (≈ 0.0119 µg/mL) | 0.074 (≈ 0.0252 µg/mL) | 0.132 | 0.073 | 0.102 | 0.11 (≈ 0.0374 µg/mL) | 0.117 | 0.039 (≈ 0.0133 µg/mL) | 0.088 | > 0.588 |
| O=c1c2c(oc3ccc(F)cc13)-c1ccccc1OCCO2 | > 0.671 | 0.033 (≈ 0.00984 µg/mL) | 0.096 (≈ 0.0286 µg/mL) | 0.134 | 0.1 | 0.167 | 0.093 (≈ 0.0277 µg/mL) | 0.117 | 0.073 (≈ 0.0218 µg/mL) | 0.117 | > 0.671 |
| O=c1c2c(oc3ccc(Br)cc13)-c1ccccc1OCCCCO2 | > 0.518 | 0.024 (≈ 0.00929 µg/mL) | 0.027 (≈ 0.0105 µg/mL) | 0.079 | 0.051 | 0.038 | 0.024 (≈ 0.00929 µg/mL) | 0.066 | 0.053 (≈ 0.0205 µg/mL) | 0.09 | > 0.518 |
| OC(Cn1cncn1)(Cn1cncn1)c1ccc(F)cc1F [FLUCONAZOLE] | ≤ 0.033 | – | – | – | – | – | – | – | – | – | ≤ 0.033 |
| O=c1c2c(oc3ccc(Br)cc13)-c1ccccc1OCCCO2 | > 0.537 | 0.037 (≈ 0.0138 µg/mL) | 0.027 (≈ 0.0101 µg/mL) | 0.053 | 0.04 | 0.032 | 0.025 (≈ 0.00933 µg/mL) | 0.04 | 0.025 (≈ 0.00933 µg/mL) | 0.026 | > 0.537 |
| O=c1c2c(oc3ccc(Cl)cc13)-c1ccccc1OCCO2 | > 0.636 | 0.063 (≈ 0.0198 µg/mL) | 0.027 (≈ 0.0085 µg/mL) | 0.033 | 0.063 | 0.047 | 0.033 (≈ 0.0104 µg/mL) | 0.065 | 0.035 (≈ 0.011 µg/mL) | 0.047 | > 0.636 |
| O=c1c2c(oc3ccccc13)-c1ccccc1OCCCCCO2 | > 0.621 | 0.089 (≈ 0.0287 µg/mL) | 0.059 (≈ 0.019 µg/mL) | 0.155 | 0.062 | 0.063 | 0.154 (≈ 0.0496 µg/mL) | 0.186 | 0.159 (≈ 0.0513 µg/mL) | 0.077 | > 0.621 |
| O=c1c2c(oc3ccc(Cl)cc13)-c1ccccc1OCCCCCO2 | > 0.561 | 0.028 (≈ 0.00999 µg/mL) | 0.034 (≈ 0.0121 µg/mL) | 0.14 | 0.07 | 0.057 | 0.088 (≈ 0.0314 µg/mL) | 0.028 | 0.014 (≈ 0.005 µg/mL) | 0.028 | > 0.561 |
| O=c1c(O)c(-c2ccccc2O)oc2ccccc12 | > 0.787 | – | – | 0.198 | 0.157 | 0.177 | – | 0.218 | – | 0.177 | > 0.787 |
| O=c1c(O)c(-c2ccccc2O)oc2ccc(F)cc12 | > 0.735 | – | – | 0.259 | 0.275 | 0.22 | – | 0.167 | – | 0.202 | > 0.735 |
